In US20190256474A1, “N-PHENYL-2-(3-PHENYL-6-OXO-1,6-DIHYDROPYRIDAZIN-1-YL)ACETAMIDE DERIVATIVES FOR TREATING CYSTIC FIBROSIS” (Proteostasis Therapeutics, Inc., priority 2016, published 2019):

Target: T1, ΔF508-CFTR (Homo sapiens, UniProt P13569, DEL508-508)
T1 construct: Primary lung epithelial cells homozygous for the Cystic Fibrosis-causing ΔF508 mutation were differentiated; endogenous in cells; host or cells: primary human bronchial epithelial cells (hBE), ΔF508/ΔF508
Assay: hBE equivalent current (Ieq) assay, CFTR activity
Assay type: cell-based
Settings: relative to a CFTR amplifier at 3 μM, ΔF508 homozygous hBE, 24 h treatment; for Activity 3 μM: compound at 3 μM; for Activity 10 μM: compound at 10 μM
Protocol: Primary lung epithelial cells homozygous for the Cystic Fibrosis-causing ΔF508 mutation were differentiated for a minimum of 4 weeks in an air-liquid interface on Costar 24 well HTS filter plates prior to the equivalent current (Ieq) measurements. Cells were apically mucus-washed for 30 minutes 24 h prior to treatment with compounds. The basolateral media was removed and replaced with media containing the compound of interest diluted to its final concentration from DMSO stocks. Treated cells were incubated at 37° C. and 5% CO2 for 24 hours. At the end of the treatment period, the media was changed to the Ieq experimental solution for 2 hours before the experiment and plates are maintained in a CO2-free incubator during this period. The plates containing the cells were then placed in pre-warmed heating blocks at 36° C.±0.5 for 15 minutes before measurements are taken. The transepithelial voltage (VT) and conductance (GT) were measured using a custom 24 channel current clamp (TECC-24) with 24 well electrode manifold. The Ieq assay measurements were made following additions with standardized time periods:
1. The baseline VT and GT values were measured for approximately 20 minutes.
2. Benzamil was added to block ENaC for 15 minutes.
3. Forskolin plus VX-770 were added to maximally activate ΔF508-CFTR for 27 minutes.
4. Bumetanide was added to inhibit the NaK2Cl cotransporter and shut-off secretion of chloride.
The activity data captured was the area under the curve (AUC) for the traces of the equivalent chloride current. The AUC was collected from the time of the forskolin/VX-770 addition until the inhibition by bumetanide addition. Correction in response to compound treatment was scored as the increase in the AUC for compound-treated samples over that of vehicle-treated samples.
The results are shown below in Table 1. + indicates activity <150% of a CFTR amplifier with compound at concentration shown and amplifier at 3 μM; ++ indicates activity >150% of a CFTR amplifier with compound at concentration shown and amplifier at 3 μM.

T1 sequence (P13569 with tags, fused parts or gaps DEL508-508): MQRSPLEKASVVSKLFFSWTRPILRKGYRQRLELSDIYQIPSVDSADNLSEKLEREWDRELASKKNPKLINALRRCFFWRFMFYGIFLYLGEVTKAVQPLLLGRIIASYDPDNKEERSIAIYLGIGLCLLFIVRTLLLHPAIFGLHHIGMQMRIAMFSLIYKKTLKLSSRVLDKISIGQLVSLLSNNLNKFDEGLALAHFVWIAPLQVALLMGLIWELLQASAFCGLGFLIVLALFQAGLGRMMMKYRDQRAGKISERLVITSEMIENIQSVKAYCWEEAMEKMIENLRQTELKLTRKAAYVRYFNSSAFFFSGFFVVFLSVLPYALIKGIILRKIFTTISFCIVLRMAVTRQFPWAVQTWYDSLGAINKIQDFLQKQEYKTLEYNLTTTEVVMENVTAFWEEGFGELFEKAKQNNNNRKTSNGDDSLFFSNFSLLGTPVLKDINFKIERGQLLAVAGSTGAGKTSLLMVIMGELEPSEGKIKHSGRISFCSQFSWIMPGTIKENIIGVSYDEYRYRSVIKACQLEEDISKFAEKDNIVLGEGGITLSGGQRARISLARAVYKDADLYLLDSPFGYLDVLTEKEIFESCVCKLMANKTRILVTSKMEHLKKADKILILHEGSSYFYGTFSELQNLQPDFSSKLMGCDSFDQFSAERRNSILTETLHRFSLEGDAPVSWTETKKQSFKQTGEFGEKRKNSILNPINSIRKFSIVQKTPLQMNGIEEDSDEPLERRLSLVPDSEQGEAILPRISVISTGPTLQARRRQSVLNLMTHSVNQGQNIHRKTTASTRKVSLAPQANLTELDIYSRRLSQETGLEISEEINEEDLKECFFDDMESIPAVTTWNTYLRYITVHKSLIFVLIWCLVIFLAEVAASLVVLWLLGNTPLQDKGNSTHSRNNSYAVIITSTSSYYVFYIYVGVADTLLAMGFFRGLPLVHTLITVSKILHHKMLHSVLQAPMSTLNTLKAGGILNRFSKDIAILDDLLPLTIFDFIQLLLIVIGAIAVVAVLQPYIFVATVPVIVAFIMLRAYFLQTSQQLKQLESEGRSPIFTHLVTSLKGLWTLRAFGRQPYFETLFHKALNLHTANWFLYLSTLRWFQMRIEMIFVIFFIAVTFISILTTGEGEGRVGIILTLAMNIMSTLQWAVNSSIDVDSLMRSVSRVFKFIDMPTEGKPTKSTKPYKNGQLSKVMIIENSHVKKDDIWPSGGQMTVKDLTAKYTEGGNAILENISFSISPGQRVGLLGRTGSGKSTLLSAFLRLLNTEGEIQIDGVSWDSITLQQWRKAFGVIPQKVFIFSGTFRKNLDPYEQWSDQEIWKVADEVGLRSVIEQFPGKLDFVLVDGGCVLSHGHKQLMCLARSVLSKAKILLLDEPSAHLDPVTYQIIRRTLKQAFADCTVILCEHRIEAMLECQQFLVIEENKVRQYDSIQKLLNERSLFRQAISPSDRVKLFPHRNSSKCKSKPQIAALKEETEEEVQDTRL

| SMILES | Activity 3 μM | Activity 10 μM |
| --- | --- | --- |
| CC(C(=O)Nc1ccc(C(F)(F)F)cc1)n1nc(-c2ccccc2Cl)ccc1=O (stereo not drawn) [Compound 29, 2-[3-(2-Chlorophenyl)-6-oxo-1,6-dihydropyridazin-1-yl]-N-[4-(trifluoromethyl)phenyl]propanamide] | + (activity <150% of a CFTR amplifier with compound at concentration shown and amplifier at 3 μM) | + (activity <150% of a CFTR amplifier with compound at concentration shown and amplifier at 3 μM) |
| Cc1ccc(-c2ccc(=O)n(C(C)C(=O)Nc3cc(F)cc(F)c3)n2)cc1O (stereo not drawn) [Compound 19, N-(3,5-Difluorophenyl)-2-[3-(3-hydroxy-4-methylphenyl)-6-oxo-1,6-dihydropyridazin-1-yl]propanamide] | – | + (activity <150% of a CFTR amplifier with compound at concentration shown and amplifier at 3 μM) |
| COc1cccc(-c2ccc(=O)n(C(C)C(=O)Nc3ccc(C(F)(F)F)cc3F)n2)c1 (stereo not drawn) [Compound 42, N-(2-Fluoro-4-(trifluoromethyl)phenyl)-2-(3-(3-methoxyphenyl)-6-oxopyridazin-1(6H)-yl)propanamide] | ++ (activity >150% of a CFTR amplifier with compound at concentration shown and amplifier at 3 μM) | ++ (activity >150% of a CFTR amplifier with compound at concentration shown and amplifier at 3 μM) |
| CCC(C(=O)Nc1ccc(C(F)(F)F)cc1)n1nc(-c2cccc(OC)c2)ccc1=O (stereo not drawn) [Compound 38, 2-[3-(3-Methoxyphenyl)-6-oxo-1,6-dihydropyridazin-1-yl]-N-[4-(trifluoromethyl)phenyl]butanamide] | ++ (activity >150% of a CFTR amplifier with compound at concentration shown and amplifier at 3 μM) | ++ (activity >150% of a CFTR amplifier with compound at concentration shown and amplifier at 3 μM) |
| COc1cccc(-c2ccc(=O)n(C(C)(C)C(=O)Nc3cc(F)cc(F)c3)n2)c1 [Compound 18, N-(3,5-Difluorophenyl)-2-(3-(3-methoxyphenyl)-6-oxopyridazin-1(6H)-yl)-2-methylpropanamide] | + (activity <150% of a CFTR amplifier with compound at concentration shown and amplifier at 3 μM) | + (activity <150% of a CFTR amplifier with compound at concentration shown and amplifier at 3 μM) |
| COc1cccc(-c2ccc(=O)n(C(C)C(=O)Nc3ccccc3Cl)n2)c1 (stereo not drawn) [Compound 12, N-(2-Chlorophenyl)-2-[3-(3-methoxyphenyl)-6-oxo-1,6-dihydropyridazin-1-yl]propanamide] | + (activity <150% of a CFTR amplifier with compound at concentration shown and amplifier at 3 μM) | + (activity <150% of a CFTR amplifier with compound at concentration shown and amplifier at 3 μM) |
| COc1cccc(-c2ccc(=O)n(C(C)C(=O)Nc3ccc(C(F)(F)F)c(C(F)(F)F)c3)n2)c1 (stereo not drawn) [Compound 47, N-[3,4-Bis(trifluoromethyl)phenyl]-2-[3-(3-methoxyphenyl)-6-oxo-1,6-dihydropyridazin-1-yl]propanamide] | ++ (activity >150% of a CFTR amplifier with compound at concentration shown and amplifier at 3 μM) | ++ (activity >150% of a CFTR amplifier with compound at concentration shown and amplifier at 3 μM) |
| COc1cccc(-c2ccc(=O)n(CC(=O)Nc3cc(F)cc(F)c3)n2)c1 [Compound 16, N-(3,5-Difluorophenyl)-2-[3-(3-methoxyphenyl)-6-oxo-1,6-dihydropyridazin-1-yl]acetamide] | – | + (activity <150% of a CFTR amplifier with compound at concentration shown and amplifier at 3 μM) |
| COc1cccc(-c2cc(-c3ccccc3)c(=O)n(C(C)C(=O)Nc3cc(F)cc(F)c3)n2)c1 (stereo not drawn) [Compound 25, N-(3,5-Difluorophenyl)-2-(3-(3-methoxyphenyl)-6-oxo-5-phenylpyridazin-1(6H)-yl)propanamide] | – | + (activity <150% of a CFTR amplifier with compound at concentration shown and amplifier at 3 μM) |
| COc1cccc(-c2ccc(=O)n(C(C)C(=O)Nc3cccc(Cl)c3)n2)c1 (stereo not drawn) [Compound 13, N-(3-Chlorophenyl)-2-[3-(3-methoxyphenyl)-6-oxo-1,6-dihydropyridazin-1-yl]propanamide] | ++ (activity >150% of a CFTR amplifier with compound at concentration shown and amplifier at 3 μM) | ++ (activity >150% of a CFTR amplifier with compound at concentration shown and amplifier at 3 μM) |
| COc1cccc(-c2ccc(=O)n(C(C)C(=O)Nc3cccc(C(F)(F)F)c3)n2)c1 (stereo not drawn) [Compound 7, 2-[3-(3-Methoxyphenyl)-6-oxo-1,6-dihydropyridazin-1-yl]-N-[3-(trifluoromethyl)phenyl]propanamide] | + (activity <150% of a CFTR amplifier with compound at concentration shown and amplifier at 3 μM) | + (activity <150% of a CFTR amplifier with compound at concentration shown and amplifier at 3 μM) |
| CC(C(=O)Nc1ccc(C(F)(F)F)cc1)n1nc(-c2cccc(C#N)c2)ccc1=O (stereo not drawn) [Compound 36, 2-[3-(3-Cyanophenyl)-6-oxo-1,6-dihydropyridazin-1-yl]-N-[4-(trifluoromethyl)phenyl]propanamide] | ++ (activity >150% of a CFTR amplifier with compound at concentration shown and amplifier at 3 μM) | ++ (activity >150% of a CFTR amplifier with compound at concentration shown and amplifier at 3 μM) |
| CC(C(=O)Nc1ccc(C(F)(F)F)cc1)n1nc(-c2ccc(Cl)cc2)ccc1=O (stereo not drawn) [Compound 31, 2-[3-(4-Chlorophenyl)-6-oxo-1,6-dihydropyridazin-1-yl]-N-[4-(trifluoromethyl)phenyl]propanamide] | + (activity <150% of a CFTR amplifier with compound at concentration shown and amplifier at 3 μM) | + (activity <150% of a CFTR amplifier with compound at concentration shown and amplifier at 3 μM) |
| CC(C(=O)Nc1cc(F)cc(F)c1)n1nc(-c2cccc(Cl)c2)ccc1=O (stereo not drawn) [Compound 1, 2-[3-(3-Chlorophenyl)-6-oxo-1,6-dihydropyridazin-1-yl]-N-(3,5-difluorophenyl)propanamide] | ++ (activity >150% of a CFTR amplifier with compound at concentration shown and amplifier at 3 μM) | ++ (activity >150% of a CFTR amplifier with compound at concentration shown and amplifier at 3 μM) |
| CC(C(=O)Nc1cc(F)cc(F)c1)n1nc(-c2cccc(-c3ccccc3)c2)ccc1=O (stereo not drawn) [Compound 5, N-(3,5-Difluorophenyl)-2-[6-oxo-3-(3-phenylphenyl)-1,6-dihydropyridazin-1-yl]propanamide] | + (activity <150% of a CFTR amplifier with compound at concentration shown and amplifier at 3 μM) | + (activity <150% of a CFTR amplifier with compound at concentration shown and amplifier at 3 μM) |
